Results taken from patent publication US9604945B2, “Sydnonimines-specific dopamine reuptake inhibitors and their use in treating dopamine related disorders” (priority 2007, dated 2017).
Read-outs that look alike come from different tables or passages of the source.

Assays:
[1] = target: dopamine transporter (DAT) (Cavia porcellus, UniProt H0WCX4); assay: Dopamine transporter binding assay [3H]WIN 35,428; set-up: species or system Guinea Pig; details: for inhibition at 10 µM: read-out: INH at 10 μM DAT
Chain of dopamine transporter (DAT) (H0WCX4 1-619): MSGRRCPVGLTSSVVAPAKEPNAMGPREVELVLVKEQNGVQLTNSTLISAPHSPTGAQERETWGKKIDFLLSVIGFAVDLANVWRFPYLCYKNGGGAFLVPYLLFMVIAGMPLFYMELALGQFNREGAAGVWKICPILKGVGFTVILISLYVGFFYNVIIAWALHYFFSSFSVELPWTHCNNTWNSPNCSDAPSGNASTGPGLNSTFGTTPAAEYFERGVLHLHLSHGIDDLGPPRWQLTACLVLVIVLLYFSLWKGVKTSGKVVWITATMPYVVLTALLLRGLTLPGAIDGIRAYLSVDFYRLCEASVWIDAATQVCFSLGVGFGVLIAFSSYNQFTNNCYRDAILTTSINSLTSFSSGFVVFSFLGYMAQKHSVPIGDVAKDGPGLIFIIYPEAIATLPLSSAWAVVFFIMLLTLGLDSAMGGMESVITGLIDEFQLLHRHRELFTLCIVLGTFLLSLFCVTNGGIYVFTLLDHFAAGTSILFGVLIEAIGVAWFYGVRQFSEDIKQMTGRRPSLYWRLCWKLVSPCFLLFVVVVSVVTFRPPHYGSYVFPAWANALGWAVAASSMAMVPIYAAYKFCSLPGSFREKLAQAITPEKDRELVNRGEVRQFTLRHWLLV
Description: DAT inhibition activity was tested according to the procedure described by J. Javitz et al., Mol. Pharmacol., 26: 35-44 (1984). The test results for a number of representative compounds of the invention are reported hereinbelow.
I. Dopamine Transporter Binding Assay [3H]WIN 35,428
• This assay was carried out according to the procedure described by Javitch, J. J. et al., Mol. Pharmacol. 26: 35-44; 1984
A. Tissue Preparation (Prepare all Solutions on Ice) • 1. Thaw frozen brains from male Guinea Pigs (in assay buffer) and place in 50 mM TRIS-HCl (pH 7.4 at 25° C. with 120 mM NaCl). Isolate striatum. • 2. Use a Polytron to homogenize tissue in 20 vols. (w/v) of 50 mM Tris-HCl (pH 7.4 at 25° C. with 120 mM NaCl). • 3. Centrifuge homogenate at 48,400×g for approximately 10 minutes at 4° C. Discard supernatant. • 4. Wash pellet an additional time as described in steps 2 and 3. • 5. Store pellet on ice until needed for binding assay. • 6. Using a Polytron (setting 5; approximately 10 seconds) resuspend pellet in 50 mM Tris-HCl (pH 7.4 at 25° C. with 120 mM NaCl) to an initial concentration of 10 mg/ml (original wet weight), such that the final concentration is 8 mg/ml or 4.0 mg tissue/tube.
B. Binding Reaction • 1. Each tube receives the following components: • 50 ul drug or vehicle • 50 ul [3H]-WIN 35,428 • 400 ul tissue suspension. • 2. Initiate binding reaction with the addition of tissue, and incubate for 120 minutes at 0° C. (on ice). • 3. Terminate binding reaction by rapid filtration of tube contents onto untreated Whatman GF/C filters. • 4. Rinse the assay tubes once with ice cold 50 mM TRIS HCl (pH 7.4 at 25° C. with 120 mM NaCl, BSA), then rapidly rinse the filters with 6×1 mls/tube of the same wash buffer. • 5. Radioactivity trapped onto the filters is assessed using LSM machine. Let sit for 3 hours in scint cocktail.
C. Dopamine Tranasporter Binding Assay
Materials and Reagents • 1. [3H]-WIN 35-428 is diluted to a concentration of 60 nM in 50 mM TRIS HCl (pH 7.4 at 25° C. with 120 mM NaCl). Thus, the final ligand concentration is 6 nM. • 2. Non-specific binding is defined as that remaining in the presence of 1×10^-6 M GBR12909 (room temperature cabinet). GBR12909 MW=523.5 g/mol. Will solubilize in 4% DMSO (sonicate 15 minutes). Aliquots can be used (1E-3). • 3. The reference compound for the assay is GBR12909 and is diluted in 4% DMSO and is then run at the following final concentrations: 1×10^−10, 5×10^−10, 2×10^−9, 5×10^−9, 1×10^−8, 2×10^−8, 5×10^−8, 1×10^−7, 2×10^−7, 5×10^−7, 1×10^−6, 5×10^−6. • 4. The positive control GBR12909 and is run at the final concentrations of: 2×10-8, 1×10^−7, 5×10^−7M. • 5. The Kd for the receptor is 28.0 nM. Buffers

[2] = target: Norepinephrine Transporter (Human Recombinant) (Homo sapiens (Human), UniProt P23975); assay: Norepinephrine transporter (human recombinant) binding assay, [3H]-Nisoxetine; details: for inhibition at 10 µM: read-out: INH at 10 μM NET
Description: II: Norepinephrine Transporter (Human Recombinant) Binding Assay • This assay was carried out in accordance with the procedure described by Raisman, R, et al. Eur. Jrnl. Pharmacol. 78: 345-351 (1982) with modifications. See also, Langer, S., et al., Eur. Jrnl. Pharmacol, 72: 423-4 (1981). Tissue Preparation • 1. hrNET (Receptor Biology; RBNET) is diluted in assay buffer to 2.5 microunits/ml, so that each tube receives 0.5 microunits, or 2 microunits/ml. • NOTE: 100 microassays, add 20 mis of buffer. Binding Reaction • 1. Each tube receives the following components: • 25 ul drug or vehicle • 25 ul [^3H]-Nisoxetine • 200 ul tissue suspension. • 2. Initiate binding reaction with the addition of tissue, and incubate at room temperature for 1 hour. • 3. Terminate binding reaction by rapid filtration of tube contents onto 0.1% PEI treated GF/C filters (TopCount). • 4. Rinse the assay tubes once with ice cold 50 mM NaCl, then rapidly rinse the filters with 6×1 ml/tube of the same wash buffer. • 5. Radioactivity trapped onto the filters is assessed using liquid scintillation spectrophotometer after soaking the filters for at least 1 hour in scintillation cocktail. Materials and Reagents • 1. The receptor source is human recombinant/CHO. • 2. [^3H]-Nisoxetine, diluted to a concentration of 10 nM in assay buffer, is used as the radioligand. Thus, the final ligand concentration is 1 nM. • 3. Non specific binding is defined as that remaining in the presence of 1×10^−6M desipramine (MW=302.8) (Make fresh: in bag with dessicating rocks 1, dissolves in water 1E-3). • 4. The reference compound for the assay is desipramine. Desimpramine is run at following final concentrations: • 1×10^−10, 2×10^−10, 5×10^−10, 1×10^−9, 2×10^−9, 5×10^−9, 1×10^−8, 2×10^−8, 5×10^−8, 1×10^−7, 2×10^−7, 5×10^−7M • 5. The positive control is any of the above run at the final concentrations of: • 1×10^−9, 5×10^−9, 2×10^−8 M. • 6. The Kd for the receptor is 3 nM. Buffers

[3] = in vivo; cited from earlier work

Structure (SMILES): O=C(/N=c1\[cH-][n+](Cc2ccccc2)no1)Nc1ccccc1 [Example 1, N-phenylcarbamoyl-3-(benzyl)-sydonimine]
- Ki [1]: 36 nM
- inhibition at 10 µM [1]: 90%
- inhibition at 10 µM [2]: 0%

Structure (SMILES): O=C([N-]c1c[n+](Cc2ccc(C(=O)O)cc2)no1)Nc1ccccc1 [Example 2]
- INH at 10 μM DAT ([1]; 10 μM): 92%
- Ki ([1]; read-out: Ki DAT): 2.7 nM
- INH at 10 μM NET ([2]; 10 μM): 11%

Structure (SMILES): O=C(/N=c1\[cH-][n+](CCc2ccccc2)no1)Nc1ccc(Cl)c(Cl)c1 [Example 4, N-(3′,4′-dichlorophenyl) carbamoyl-3-phenethyl sydnonimine]
- Ki [1]: 40 nM
- inhibition at 10 µM [1]: 99%
- inhibition at 10 µM [2]: 2%

Structure (SMILES): O=C(/N=c1\[cH-][n+](CCc2ccc([N+](=O)[O-])cc2)no1)Nc1ccc([N+](=O)[O-])c([N+](=O)[O-])c1 [Example 5, N-(3′,4′-dinitrophenyl)carbamoyl-3-p-nitrophenethyl sydnonimine]
- Ki [1]: 100 nM
- inhibition at 10 µM [1]: 85%
- inhibition at 10 µM [2]: 4%

Structure (SMILES): O=C(/N=c1\[cH-][n+](Cc2ccc(F)cc2)no1)Nc1ccccc1 [Example 7, N-phenylcarbamoyl-3-(p-fluoro-benzyl)-sydnonimine]
- Ki [1]: 0.46 nM
- inhibition at 10 µM [1]: 99%
- inhibition at 10 µM [2]: 15%

Structure (SMILES): CC(Cc1ccccc1)[n+]1cc([N-]C(=O)Nc2ccccc2)on1 (stereo not shown) [sydnocarb, 3-(1-methyl-2-phenylethyl)-N-(phenylcarbomoyl)sydnone imine]
- Effect on locomotor activity in open field studies [3]: locomotor stimulating effect
